Patent publication US20190231751A1, “TREATMENT OF FIBROTIC DISORDERS WITH JUN N-TERMINAL KINASE INHIBITORS” (Imago Pharmaceuticals, Inc., priority 2016, published 2019)

Experiments:
Assay type in all cases: biochemical
JNK3 = JNK3 (Homo sapiens, UniProt P53779); assay: In vitro JNK3 inhibition (Table 1)
Experimental: (§1) In vitro assays for the determination of JNK activities are known in the art and exemplary assay formats are described herein.
(§2) IC50 values in Table 1 were determined using the procedures as described in U.S. Pat. No. 8,450,353.

JNK1 = JNK1 (Homo sapiens, UniProt P45983); assay: In vitro JNK1 inhibition (Table 1)
Chain of JNK1 (P45983 whole entry, species assumed): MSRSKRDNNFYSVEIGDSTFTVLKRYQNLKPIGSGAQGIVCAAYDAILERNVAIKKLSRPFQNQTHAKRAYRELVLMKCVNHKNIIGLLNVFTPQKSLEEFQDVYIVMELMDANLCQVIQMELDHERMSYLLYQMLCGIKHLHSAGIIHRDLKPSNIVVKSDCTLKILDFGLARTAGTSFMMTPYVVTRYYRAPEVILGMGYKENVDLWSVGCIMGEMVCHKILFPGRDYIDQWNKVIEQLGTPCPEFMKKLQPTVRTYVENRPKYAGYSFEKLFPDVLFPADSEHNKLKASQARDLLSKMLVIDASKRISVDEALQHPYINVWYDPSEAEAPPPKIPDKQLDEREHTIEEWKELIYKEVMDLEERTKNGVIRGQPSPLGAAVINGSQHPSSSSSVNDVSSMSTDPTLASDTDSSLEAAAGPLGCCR
Experimental: as §1, §2

JNK2 = JNK2 (Homo sapiens, UniProt P45984); assay: In vitro JNK2 inhibition (Table 1)
Chain of JNK2 (P45984 whole entry, species assumed): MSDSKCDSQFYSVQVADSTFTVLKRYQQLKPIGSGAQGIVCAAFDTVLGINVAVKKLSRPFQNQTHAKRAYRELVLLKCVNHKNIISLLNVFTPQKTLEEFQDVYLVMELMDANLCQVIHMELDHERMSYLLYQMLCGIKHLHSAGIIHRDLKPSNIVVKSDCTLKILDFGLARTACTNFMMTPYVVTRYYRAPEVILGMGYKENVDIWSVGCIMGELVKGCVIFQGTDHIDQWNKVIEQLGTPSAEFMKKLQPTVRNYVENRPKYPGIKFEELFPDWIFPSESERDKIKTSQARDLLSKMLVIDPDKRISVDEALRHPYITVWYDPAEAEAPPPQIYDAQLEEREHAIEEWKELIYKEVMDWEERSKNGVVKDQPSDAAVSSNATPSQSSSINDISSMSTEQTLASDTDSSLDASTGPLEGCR
Experimental: as §1, §2

Chain of JNK3 (P53779 whole entry, species assumed): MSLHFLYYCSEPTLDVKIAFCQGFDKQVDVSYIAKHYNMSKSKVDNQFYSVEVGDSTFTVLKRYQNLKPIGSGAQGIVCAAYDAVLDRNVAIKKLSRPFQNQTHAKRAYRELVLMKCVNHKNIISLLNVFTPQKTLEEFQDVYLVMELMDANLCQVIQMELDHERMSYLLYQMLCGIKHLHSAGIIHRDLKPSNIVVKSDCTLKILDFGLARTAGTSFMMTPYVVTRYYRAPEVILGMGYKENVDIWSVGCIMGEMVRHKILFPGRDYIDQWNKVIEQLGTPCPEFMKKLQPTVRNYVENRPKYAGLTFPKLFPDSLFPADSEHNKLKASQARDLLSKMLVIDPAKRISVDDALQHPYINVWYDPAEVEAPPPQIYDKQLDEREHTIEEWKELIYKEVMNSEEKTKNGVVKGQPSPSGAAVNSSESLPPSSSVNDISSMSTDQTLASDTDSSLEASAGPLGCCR

Compound	IC50 (JNK3) [nM]	IC50 (JNK1) [nM]	IC50 (JNK2) [nM]
N#Cc1csc(NC(=O)Cn2c(=O)ccc3cc(C(F)(F)F)ccc32)c1-n1ccnn1 [N-(4-cyano-3-(1H-1,2,3-triazol-1-yl)thiophen-2-yl)-2-(2-oxo-6-triazol-1-yl)-4-cyanothiophen-2-yl)-2-(2-oxo-6-(trifluoromethyl)quinolin-1(2H)-yl)acetamide]	100 to 10000	100 to 10000	100 to 10000
O=C(CN1C(=O)CCc2cc(C(F)(F)F)ccc21)Nc1scc(Br)c1-c1ncn[nH]1 [N-(4-bromo-3-(1H-1,2,4-triazol-5-yl)thiophen-2-yl)-2-(2-oxo-6-(trifluoromethyl)-3,4-dihydroquinolin-1(2H)-yl)acetamide]	< 100	< 100	< 100
Cc1n[nH]c(-c2c(C)csc2NC(=O)CN2C(=O)CCc3ccccc32)n1 [N-(4-methyl-3-(3-methyl-1H-1,2,4-triazol-5-yl)thiophen-2-yl)-2-(2-oxo-3,4-dihydroquinolin-1(2H)-yl)acetamide]	< 100	< 100	< 100
N#Cc1csc(NC(=O)CN2C(=O)CCc3ccccc32)c1-c1ncn[nH]1 [N-(4-cyano-3-(1H-1,2,4-triazol-5-yl)thiophen-2-yl)-2-(2-oxo-3,4-dihydroquinolin-1(2H)-yl)acetamide]	< 100	< 100	< 100
O=C(Cn1c(=O)ccc2c(F)cccc21)Nc1scc(Br)c1-c1ncn[nH]1 [N-(4-bromo-3-(1H-1,2,4-triazol-5-yl)thiophen-2-yl)-2-(5-fluoro-2-oxoquinolin-1(2H)-yl)acetamide]	< 100	< 100	< 100
O=C(CN1C(=O)CCc2ncccc21)Nc1scc(Cl)c1-c1nccs1 [N-(4-chloro-3-(thiazol-2-yl)thiophen-2-yl)-2-(2-oxo-3,4-dihydro-1,5-naphthyridin-1(2H)-yl)acetamide]	< 100	< 100	< 100
O=C(Cc1cccc2cnccc12)Nc1scc(Cl)c1-c1ncn[nH]1 [N-(4-chloro-3-(1H-1,2,4-triazol-5-yl)thiophen-2-yl)-2-(isoquinolin-5-yl)acetamide]	< 100	< 100	< 100
Cn1cnc(-c2c(C#N)csc2NC(=O)CN2C(=O)CCc3ncccc32)n1 [N-(4-cyano-3-(1-methyl-1H-1,2,4-triazol-3-yl)thiophen-2-yl)-2-(2-oxo-3,4-dihydro-1,5-naphthyridin-1(2H)-yl)acetamide]	< 100	< 100	< 100
N#Cc1csc(NC(=O)Cn2c(=O)ccc3cc(C(F)(F)F)ccc32)c1-c1ncco1 [N-(4-cyano-3-(oxazol-2-yl)thiophen-2-yl)-2-(2-oxo-6-(trifluoromethyl)quinolin-1(2H)-yl)acetamide]	< 100	< 100	< 100
N#Cc1csc(NC(=O)Cc2cccc3ncccc23)c1-c1nnc[nH]1 [N-(4-cyano-3-(4H-1,2,4-triazol-3-yl)thiophen-2-yl)-2-(quinolin-5-yl)acetamide]	< 100	< 100	< 100
O=C(Cn1c(=O)ccc2cnc(C(F)(F)F)cc21)Nc1scc(Cl)c1-c1nc[nH]n1 [N-(4-chloro-3-(1H-1,2,4-triazol-3-yl)thiophen-2-yl)-2-(2-oxo-7-(trifluoromethyl)-1,6-naphthyridin-1(2H)-yl)acetamide]	< 100	< 100	< 100
O=C(Cn1c(=O)ccc2nc(C(F)(F)F)ccc21)Nc1scc(Br)c1-c1ncn[nH]1 [N-(4-bromo-3-(1H-1,2,4-triazol-5-yl)thiophen-2-yl)-2-(2-oxo-6-(trifluoromethyl)-1,5-naphthyridin-1(2H)-yl)acetamide]	< 100	< 100	< 100
O=C(Cn1c(=O)ccc2cc(C(F)(F)F)ccc21)Nc1scc(Cl)c1-c1ncn(CCCN2CCOCC2)n1 [N-(4-chloro-3-(1-(3-morpholinopropyl)-1H-1,2,4-triazol-3-yl)thiophen-2-yl)-2-(2-oxo-6-(trifluoromethyl)quinolin-1(2H)-yl)acetamide]	< 100	< 100	< 100
O=C(Cn1c(=O)ccn2nccc12)Nc1scc(Br)c1-c1ncn[nH]1 [N-(4-bromo-3-(1H-1,2,4-triazol-5-yl)thiophen-2-yl)-2-(5-oxopyrazolo[1,5-a]pyrimidin-4(5H)-yl)acetamide]	< 100	< 100	< 100
N#Cc1csc(NC(=O)Cn2c(=O)ccc3cc(C(F)(F)F)ccc32)c1-c1nccs1 [N-(4-cyano-3-(thiazol-2-yl)thiophen-2-yl)-2-(2-oxo-6-(trifluoromethyl)quinolin-1(2H)-yl)acetamide]	< 100	< 100	< 100

Further lines, results first:

IC50 (JNK3) [nM]	IC50 (JNK1) [nM]	IC50 (JNK2) [nM]	Compound
< 100	< 100	< 100	O=C(CN1C(=O)CCc2ccc(Cl)cc21)Nc1scc(Br)c1-c1ncn[nH]1 [N-(4-bromo-3-(1H-1,2,4-triazol-5-yl)thiophen-2-yl)-2-(7-chloro-2-oxo-3,4-dihydroquinolin-1(2H)-yl)acetamide]
< 100	< 100	< 100	O=C(CN1C(=O)CCc2ncccc21)Nc1scc(Br)c1-c1ncco1 [N-(4-bromo-3-(oxazol-2-yl)thiophen-2-yl)-2-(2-oxo-3,4-dihydro-1,5-naphthyridin-1(2H)-yl)acetamide]
< 100	< 100	< 100	Cn1cnc(-c2c(Cl)csc2NC(=O)Cn2c(=O)ccc3nc(C(F)(F)F)ccc32)n1 [N-(4-chloro-3-(1-methyl-1H-1,2,4-triazol-3-yl)thiophen-2-yl)-2-(2-oxo-6-(trifluoromethyl)-1,5-naphthyridin-1(2H)-yl)acetamide]
< 100	< 100	< 100	O=C(Cn1c(=O)ccn2nc(C(F)(F)F)cc12)Nc1scc(Cl)c1-c1ncn[nH]1 [N-(4-chloro-3-(1H-1,2,4-triazol-5-yl)thiophen-2-yl)-2-(5-oxo-2-(trifluoromethyl)pyrazolo[1,5-a]pyrimidin-4(5H)-yl)acetamide]
< 100	< 100	< 10000	Cc1csc(NC(=O)CN2C(=O)CCc3ccccc32)c1-c1ncn[nH]1 [N-(4-methyl-3-(1H-1,2,4-triazol-5-yl)thiophen-2-yl)-2-(2-oxo-3,4-dihydroquinolin-1(2H)-yl)acetamide]
< 100	< 100	< 100	O=C(CN1C(=O)CCc2cnccc21)Nc1scc(Br)c1-c1ncn[nH]1 [N-(4-bromo-3-(1H-1,2,4-triazol-5-yl)thiophen-2-yl)-2-(2-oxo-3,4-dihydro-1,6-naphthyridin-1(2H)-yl)acetamide]
< 100	< 100	< 100	Cn1cnc(-c2c(Cl)csc2NC(=O)Cn2c(=O)ccn3nccc23)n1 [N-(4-chloro-3-(1-methyl-1H-1,2,4-triazol-3-yl)thiophen-2-yl)-2-(5-oxopyrazolo[1,5-a]pyrimidin-4(5H)-yl)acetamide]
< 100	< 100	< 100	N#Cc1csc(NC(=O)Cn2c(=O)ccc3cc(C(F)(F)F)ccc32)c1-n1nccn1 [N-(4-cyano-3-(2H-1,2,3-triazol-2-yl)thiophen-2-yl)-2-(2-oxo-6-(trifluoromethyl)quinolin-1(2H)-yl)acetamide]
< 100	< 100	< 100	O=C(Cn1c(=O)ccc2nc(C(F)(F)F)ccc21)Nc1scc(Cl)c1-c1ncn[nH]1 [N-(4-chloro-3-(1H-1,2,4-triazol-5-yl)thiophen-2-yl)-2-(2-oxo-6-(trifluoromethyl)-1,5-naphthyridin-1(2H)-yl)acetamide]
< 100	< 100	< 100	O=C(Cn1c(=O)ccc2ncccc21)Nc1scc(Br)c1-c1ncn[nH]1 [IGP002, N-(4-bromo-3-(1H-1,2,4-triazol-5-yl)thiophen-2-yl)-2-(2-oxo-1,5-naphthyridin-1(2H)-yl)acetamide]
< 100	< 100	< 100	N#Cc1ccc2ccc(=O)n(CC(=O)Nc3scc(Br)c3-c3ncn[nH]3)c2c1 [N-(4-bromo-3-(1H-1,2,4-triazol-5-yl)thiophen-2-yl)-2-(7-cyano-2-oxoquinolin-1(2H)-yl)acetamide]
< 100	< 100	< 100	N#Cc1csc(NC(=O)CN2C(=O)CCc3ncccc32)c1-c1nc[nH]n1 [N-(4-cyano-3-(1H-1,2,4-triazol-3-yl)thiophen-2-yl)-2-(2-oxo-3,4-dihydro-1,5-naphthyridin-1(2H)-yl)acetamide]
< 100	< 100	< 100	N#Cc1csc(NC(=O)CN2C(=O)CCc3ncccc32)c1-c1nccs1 [N-(4-cyano-3-(thiazol-2-yl)thiophen-2-yl)-2-(2-oxo-3,4-dihydro-1,5-naphthyridin-1(2H)-yl)acetamide]
< 100	< 100	< 100	O=C(CN1C(=O)CCc2ncccc21)Nc1scc(Cl)c1-c1nc[nH]n1 [N-(4-chloro-3-(1H-1,2,4-triazol-3-yl)thiophen-2-yl)-2-(2-oxo-3,4-dihydro-1,5-naphthyridin-1(2H)-yl)acetamide]
< 100	< 100	< 100	CN(C)CCn1cnc(-c2c(Cl)csc2NC(=O)Cn2c(=O)ccc3cc(C(F)(F)F)ccc32)n1 [N-(4-chloro-3-(1-(2-(dimethylamino)ethyl)-1H-1,2,4-triazol-3-yl)thiophen-2-yl)-2-(2-oxo-6-(trifluoromethyl)quinolin-1(2H)-yl)acetamide]
< 100	< 100	< 100	Cn1cnc(-c2c(Br)csc2NC(=O)CN2C(=O)CCc3ncccc32)n1 [N-(4-bromo-3-(1-methyl-1H-1,2,4-triazol-3-yl)thiophen-2-yl)-2-(2-oxo-3,4-dihydro-1,5-naphthyridin-1(2H)-yl)acetamide]
